Molecules are shown by their SMILES.

Usually IC50 stands for the concentration at which inhibition is half-maximal.

For this assay, the target named is T1, recombinant human GR (Homo sapiens, UniProt P04150).
T1 construct: purchased Panvera/Invitrogen P2812 (kit P2893)
T1 sequence (P04150 1-777): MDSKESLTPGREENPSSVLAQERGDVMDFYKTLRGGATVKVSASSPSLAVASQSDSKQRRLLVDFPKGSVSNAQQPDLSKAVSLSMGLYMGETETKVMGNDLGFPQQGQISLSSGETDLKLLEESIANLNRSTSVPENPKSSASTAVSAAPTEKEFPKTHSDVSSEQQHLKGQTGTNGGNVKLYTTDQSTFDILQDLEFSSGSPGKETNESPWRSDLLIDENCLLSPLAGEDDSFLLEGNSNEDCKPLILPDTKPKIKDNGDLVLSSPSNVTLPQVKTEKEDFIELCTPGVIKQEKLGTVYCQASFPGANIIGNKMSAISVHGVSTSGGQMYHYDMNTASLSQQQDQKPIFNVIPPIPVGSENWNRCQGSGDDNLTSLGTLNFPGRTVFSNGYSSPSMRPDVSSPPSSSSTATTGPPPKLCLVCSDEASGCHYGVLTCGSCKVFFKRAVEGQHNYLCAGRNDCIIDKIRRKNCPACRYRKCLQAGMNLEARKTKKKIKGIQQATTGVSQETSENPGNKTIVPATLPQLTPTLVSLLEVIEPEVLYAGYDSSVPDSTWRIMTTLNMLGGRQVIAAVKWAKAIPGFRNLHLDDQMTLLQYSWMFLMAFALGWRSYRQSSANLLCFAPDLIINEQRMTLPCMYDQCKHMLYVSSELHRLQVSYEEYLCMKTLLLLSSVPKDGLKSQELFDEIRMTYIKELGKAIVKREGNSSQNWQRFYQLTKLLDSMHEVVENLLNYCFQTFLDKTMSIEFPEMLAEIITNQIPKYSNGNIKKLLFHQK
Briefly: Human Glucocorticoid Receptor (GR) Assay (fluorescence polarization, Panvera/Invitrogen kit). The settings on record: GS Red tracer, 2 hours at room temperature, 100% control 10 μM Dexamethasone, read-out: Inhibition of GR binding, IC50. The procedure:
Human Glucocorticoid Receptor (GR) Assay The assay is based on a commercial kit from Panvera/Invitrogen (Part number P2893). The assay technology is fluorescence polarization. The kit utilises recombinant human GR (Panvera, Part number P2812), a Fluoromone™ labelled tracer (GS Red, Panvera, Part number P2894) and a Stabilizing Peptide 10× (Panvera, Part number P2815). The GR and Stabilizing Peptide reagents are stored at −70° C. while the GS Red is stored at −20° C. Also included in the kit are 1M DTT (Panvera, Part number P2325, stored at −20° C.) and GR Screening buffer 10× (Panvera, Part number P2814, stored at −70° C. initially but once thawed stored at room temperature). Avoid repeated freeze/thaws for all reagents. The GR Screening buffer 10× comprises 100 mM potassium phosphate, 200 mM sodium molybdate, 1 mM EDTA and 20% DMSO. Test compounds (1 μL) and controls (1 μL) in 100% DMSO were added to black polystyrene 384-well plates (Greiner low volume black flat-bottom, part number 784076). 0% control was 100% DMSO and 100% control was 10 μM Dexamethasone. Background solution (8 μL; assay buffer 10×, Stabilizing Peptide, DTT and ice cold MQ water) was added to the background wells. GS Red solution (7 μL; assay buffer 10×, Stabilizing Peptide, DTT, GS Red and ice cold water) was added to all wells except background wells. GR solution (7 μL; assay buffer 10×, Stabilizing Peptide, DTT, GR and ice cold water) was added to all wells. The plate was sealed and incubated in a dark at room temperature for 2 hours. The plate was read in an Analyst plate reader (LJL Biosystems/Molecular Devices Corporation) or other similar plate reader capable of recording fluorescence polarization (excitation wavelength 530 nm, emission wavelength 590 nm and a dichroic mirror at 561 nm).
(Fluorescence polarisation rises when a labelled molecule tumbles more slowly, as on binding a larger partner.)
As for `C[C@]12C=CC(=O)C=C1[C@@H](F)C[C@H]1[C@@H]3C[C@H]4OC(c5ccc(OC(F)(F)F)cc5)O[C@@]4(C(=O)SCC#N)[C@@]3(C)C[C@H](O)[C@@]12F` (stereo partly drawn) [Example 19, S-(Cyanomethyl)(4aS,4bR,5S,6aS,6bS,9aR,10aS,10bS,12S)-4b,12-difluoro-5-hydroxy-4a,6a-dimethyl-2-oxo-8-[4-(trifluoromethoxy)phenyl]-2,4a,4b,5,6,6a,9a,10,10a,10b,11,12-dodecahydro-6bH-naphtho[2′,1′:4,5]indeno[1,2-d][1,3]dioxole-6b-carbothioate], the IC50 was 4.8 nM. With `C[C@]12C=CC(=O)C=C1CC[C@@H]1[C@@H]2[C@@H](O)C[C@@]2(C)[C@H]1C[C@H]1OC(c3ccccc3F)O[C@]12C(=O)SCC#N` (stereo partly drawn) [Example 42, S-(Cyanomethyl)(4aR,4bS,5S,6aS,6bS,9aR,10aS,10bS)-8-(2-fluorophenyl)-5-hydroxy-4a,6a-dimethyl-2-oxo-2,4a,4b,5,6,6a,9a,10,10a,10b,11,12-dodecahydro-6bH-naphtho[2′,1′:4,5]indeno[1,2-d][1,3]dioxole-6b-carbothioate] the figure was 1.5 nM. The figure for `C[C@]12C=CC(=O)C=C1CC[C@@H]1[C@@H]2[C@@H](O)C[C@@]2(C)[C@H]1C[C@H]1O[C@@H](c3cccs3)O[C@]12C(=O)SCF` [Example 35, S-(Fluoromethyl)(4aR,4bS,5S,6aS,6bS,8R,9aR,10aS,10bS)-5-hydroxy-4a,6a-dimethyl-2-oxo-8-thiophen-2-yl-2,4a,4b,5,6,6a,9a,10,10a,10,11,12-dodecahydro-6bH-naphtho[2′,1′:4,5]indeno[1,2-d][1,3]dioxole-6b-carbothioate] is 1.1 nM. As to `C[C@]12C=CC(=O)C=C1[C@@H](F)C[C@H]1[C@@H]3C[C@H]4OC(c5ccc(C(F)(F)F)cc5)O[C@@]4(C(=O)SCF)[C@@]3(C)C[C@H](O)[C@@]12F` (stereo partly drawn) [Example 18, S-(Fluoromethyl)(4aS,4bR,5S,6aS,6bS,9aR,10aS,10bS,12S)-4b,12-difluoro-5-hydroxy-4a,6a-dimethyl-2-oxo-8-[4-(trifluoromethyl)phenyl]-2,4a,4b,5,6,6a,9a,10,10a,10b,11,12-dodecahydro-6bH-naphtho[2′,1′:4,5]indeno[1,2-d][1,3]dioxole-6b-carbothioate], the IC50 stood at 3.7 nM.

Regarding `C[C@]12C=CC(=O)C=C1[C@@H](F)C[C@H]1[C@@H]3C[C@H]4OC(c5ccc(Cl)cc5)O[C@@]4(C(=O)SCF)[C@@]3(C)C[C@H](O)[C@@]12F` (stereo partly drawn) [Example 29, S-(Fluoromethyl)(4aS,4bR,5S,6aS,6bS,9aR,10aS,10bS,12S)-8-(4-chlorophenyl)-4b,12-difluoro-5-hydroxy-4a,6a-dimethyl-2-oxo-2,4a,4b,5,6,6a,9a,10,10a,10b,11,12-dodecahydro-6bH-naphtho[2′,1′:4,5]indeno[1,2-d][1,3]dioxole-6b-carbothioate], the concentration for half-maximal inhibition (IC50) was found to be 1.3 nM. With `CSC(=O)[C@@]12OC(c3ccc(F)cc3F)O[C@@H]1C[C@H]1[C@@H]3C[C@H](F)C4=CC(=O)C=C[C@]4(C)[C@@]3(F)[C@@H](O)C[C@@]12C` (stereo partly drawn) [Example 5, S-Methyl (4aS,4bR,5S,6aS,6bS,9aR,10aS,10bS,12S)-8-(2,4-difluorophenyl)-4b,12-difluoro-5-hydroxy-4a,6a-dimethyl-2-oxo-2,4a,4b,5,6,6a,9a,10,10a,10b,11,12-dodecahydro-6bH-naphtho[2′,1′:4,5]indeno[1,2-d][1,3]dioxole-6b-carbothioate], the half-inhibitory concentration (IC50) came to 1.1 nM. As to `C[C@]12C=CC(=O)C=C1[C@@H](F)C[C@H]1[C@@H]3C[C@H]4OC(c5ccc(Cl)o5)O[C@@]4(C(=O)SCF)[C@@]3(C)C[C@H](O)[C@@]12F` (stereo partly drawn) [Example 11, S-(Fluoromethyl)(4aS,4bR,5S,6aS,6bS,9aR,10aS,10bS,12S)-8-(5-chloro-2-furyl)-4b,12-difluoro-5-hydroxy-4a,6a-dimethyl-2-oxo-2,4a,4b,5,6,6a,9a,10,10a,10b,11,12-dodecahydro-6bH-naphtho[2′,1′:4,5]indeno[1,2-d][1,3]dioxole-6b-carbothioate], the IC50 stood at 0.59 nM. With `C[C@]12C=CC(=O)C=C1CC[C@@H]1[C@@H]2[C@@H](O)C[C@@]2(C)[C@H]1C[C@H]1OC(c3ccccc3F)O[C@]12C(=O)SCF` (stereo partly drawn) [Example 43, S-(Fluoromethyl)(4aR,4bS,5S,6aS,6bS,9aR,10aS,10bS)-8-(2-fluorophenyl)-5-hydroxy-4a,6a-dimethyl-2-oxo-2,4a,4b,5,6,6a,9a,10,10a,10,11,12-dodecahydro-6bH-naphtho[2′,1′:4,5]indeno[1,2-d][1,3]dioxole-6b-carbothioate] the figure was 0.81 nM.

Take `C[C@]12C=CC(=O)C=C1[C@@H](F)C[C@H]1[C@@H]3C[C@H]4OC(c5ccccc5F)O[C@@]4(C(=O)SCF)[C@@]3(C)C[C@H](O)[C@@]12F` (stereo partly drawn) [Example 21, S-(Fluoromethyl)(4aS,4bR,5S,6aS,6bS,9aR,10aS,10bS,12S)-4b,12-difluoro-8-(2-fluorophenyl)-5-hydroxy-4a,6a-dimethyl-2-oxo-2,4a,4b,5,6,6a,9a,10,10a,10b,11,12-dodecahydro-6bH-naphtho[2′,1′:4,5]indeno[1,2-d][1,3]dioxole-6b-carbothioate]: the concentration for half-maximal inhibition (IC50) was determined as 0.57 nM.

For `C[C@]12C=CC(=O)C=C1[C@@H](F)C[C@H]1[C@@H]3C[C@H]4OC(c5ccccc5F)O[C@@]4(C(=O)SCC#N)[C@@]3(C)C[C@H](O)[C@@]12F` (stereo partly drawn) [Example 27, S-(Cyanomethyl)(4aS,4bR,5S,6aS,6bS,9aR,10aS,10bS,12S)-4b,12-difluoro-8-(2-fluorophenyl)-5-hydroxy-4a,6a-dimethyl-2-oxo-2,4a,4b,5,6,6a,9a,10,10a,10b,11,12-dodecahydro-6bH-naphtho[2′,1′:4,5]indeno[1,2-d][1,3]dioxole-6b-carbothioate], the IC50 is 1.1 nM. The figure for `C[C@]12C=CC(=O)C=C1[C@@H](F)C[C@H]1[C@@H]3C[C@H]4OC(c5cccc6c5OCC6)O[C@@]4(C(=O)SCF)[C@@]3(C)C[C@H](O)[C@@]12F` (stereo partly drawn) [Example 32, S-(Fluoromethyl)(4aS,4bR,5S,6aS,6bS,9aR,10aS,10bS,12S)-8-(2,3-dihydro-1-benzofuran-7-yl)-4b,12-difluoro-5-hydroxy-4a,6a-dimethyl-2-oxo-2,4a,4b,5,6,6a,9a,10,10a,10b,11,12-dodecahydro-6bH-naphtho[2′,1′:4,5]indeno[1,2-d][1,3]dioxole-6b-carbothioate] is 1 nM.

As to `COc1ccc([C@@H]2O[C@@H]3C[C@H]4[C@@H]5CCC6=CC(=O)C=C[C@]6(C)[C@H]5[C@@H](O)C[C@]4(C)[C@]3(C(=O)SC)O2)c(F)c1` [Example 38 (8R), S-Methyl (4aR,4bS,5S,6aS,6bS,8R,9aR,10aS,10bS)-8-(2-fluoro-4-methoxyphenyl)-5-hydroxy-4a,6a-dimethyl-2-oxo-2,4a,4b,5,6,6a,9a,10,10a,10b,11,12-dodecahydro-6bH-naphtho[2′,1′:4,5]indeno[1,2-d][1,3]dioxole-6b-carbothioate], the IC50 stood at 2.2 nM. With `C[C@]12C=CC(=O)C=C1CC[C@@H]1[C@@H]2[C@@H](O)C[C@@]2(C)[C@H]1C[C@H]1OC(c3ccc(C(F)(F)F)cc3)O[C@]12C(=O)SCF` (stereo partly drawn) [Example 40, S-(Fluoromethyl)(4aR,4bS,5S,6aS,6bS,9aR,10aS,10bS)-5-hydroxy-4a,6a-dimethyl-2-oxo-8-[4-(trifluoromethyl)phenyl]-2,4a,4b,5,6,6a,9a,10,10a,10,11,12-dodecahydro-6bH-naphtho[2′,1′:4,5]indeno[1,2-d][1,3]dioxole-6b-carbothioate] the figure was 1.7 nM.

For the origin of these results see patent publication US20110294766A1, “16 Alpha, 17 Alpha-Acetal Glucocorticosteroidal Derivatives and their Use” (AstraZeneca AB, priority 2008, published 2011).
